Publication PMC5999115, “Anti-tumor activity of phenoxybenzamine and its inhibition of histone deacetylases” (PLoS ONE, 2018)

Key:
Test in all cases: Oncotest CellTiter-Blue cell viability assay, 72 hours
Format in all cases: cell-based, human
[1] = tested on: MAXF T47D
Procedure: (§1) Further studies with varying drug concentrations on selected human cell lines, in most cases those studied in the NCI60 screen, were conducted by Oncotest GmbH laboratories, Freiburg, Germany; Oncotest is a division of Charles River Laboratories. The dissolution procedure for PBZ and the cell culture […] was 72 hours; anti-tumor activity was determined with the CellTiter-Blue® Cell Viability Assay, Promega, Mannheim, Germany. The 50% Inhibitory (IC50) concentrations were determined. The results are the average of duplicate assays. Paclitaxel was included as a reference compound to confirm the integrity of the assays. See S1 Appendix for further details.
(§2) “Cell lines were routinely passaged once or twice weekly and maintained in culture for up to 20 passages. Cells were grown at 37°C in a humidified atmosphere with 5% CO2 in RPMI 1640 medium (25 mM HEPES, with L-glutamine, #FG1385, Biochrom, Berlin, Germany) supplemented with 10% (v/v) fetal calf serum (Sigma, Taufkirchen, Germany) and 0.1 mg/mL gentamicin (Life Technologies, Karlsruhe, Germany).”

[2] = tested on: MMXF RPMI 8226
Procedure: as §1, §2

[3] = tested on: LXFS DMS 273
Procedure: as §1, §2

[4] = tested on: PRXF PC-3
Procedure: as §1, §2

[5] = MMX RPMI8226, 1% FCS, study P495C
[6] = MMX RPMI8226, 10% FCS, study P495A
[7] = MMX RPMI8226, 10% FCS, study P495B
[8] = LXFS DMS273, 1% FCS, study P495C
[9] = LXFS DMS273, 10% FCS, study P495A

With `CC(COc1ccccc1)N(CCCl)Cc1ccccc1` (stereo not drawn) [PBZ, phenoxybenzamine] the “Percent cell growth in Oncotest screen with 10% FCS (72 hr incubation)” value ([1]; 10 μM phenoxybenzamine, T47D) was 97%, the IC50 ([1]; Homo sapiens, MAXF T47D Mammary, 1% FCS) was 83.4 µM and the “Test/Control (%) at Drug Concentration [uM] 1,0E+00” value (“Test/Control (%) … [uM] 1,0E+00” for short) ([1]; MAX T47D, 1% FCS, study P495C) was 98%. The “Test/Control (%) at Drug Concentration [uM] 1,0E+01” value (from here on “Test/Control (%) … [uM] 1,0E+01”) ([1]; MAX T47D, 1% FCS, study P495C) was 96%, the “Test/Control (%) at Drug Concentration [uM] 1,0E+02” value (shortened to “Test/Control (%) … [uM] 1,0E+02”) ([1]; MAX T47D, 1% FCS, study P495C) was 37% and the “Test/Control (%) at Drug Concentration [uM] 3,2E+00” value (“Test/Control (%) … [uM] 3,2E+00” below) ([1]; MAX T47D, 1% FCS, study P495C) was 99%. The “Test/Control (%) at Drug Concentration [uM] 3,2E+01” value (from here on “Test/Control (%) … [uM] 3,2E+01”) ([1]; MAX T47D, 1% FCS, study P495C) was 92%, the “Test/Control (%) … [uM] 1,0E+00” value ([1]; MAX T47D, 10% FCS, study P495A) was 101% and the “Test/Control (%) … [uM] 1,0E+01” value ([1]; MAX T47D, 10% FCS, study P495A) was 97%. For the same molecule, the “Test/Control (%) … [uM] 1,0E+02” value ([1]; MAX T47D, 10% FCS, study P495A) was 74%, the “Test/Control (%) at Drug Concentration [uM] 1,0E-01” value (shortened to “Test/Control (%) … [uM] 1,0E-01”) ([1]; MAX T47D, 10% FCS, study P495A) was 97% and the “Test/Control (%) at Drug Concentration [uM] 1,0E-02” value (shortened to “Test/Control (%) … [uM] 1,0E-02”) ([1]; MAX T47D, 10% FCS, study P495A) was 92%. The “Test/Control (%) … [uM] 3,2E+00” value ([1]; MAX T47D, 10% FCS, study P495A) was 102%, the “Test/Control (%) … [uM] 3,2E+01” value ([1]; MAX T47D, 10% FCS, study P495A) was 95% and the “Test/Control (%) at Drug Concentration [uM] 3,2E-01” value (shortened to “Test/Control (%) … [uM] 3,2E-01”) ([1]; MAX T47D, 10% FCS, study P495A) was 97%. The “Test/Control (%) at Drug Concentration [uM] 3,2E-02” value (“Test/Control (%) … [uM] 3,2E-02” for short) ([1]; MAX T47D, 10% FCS, study P495A) was 92%, the “Test/Control (%) at Drug Concentration [uM] 3,2E-03” value (“Test/Control (%) … [uM] 3,2E-03” below) ([1]; MAX T47D, 10% FCS, study P495A) was 97% and the “Test/Control (%) … [uM] 1,0E+00” value ([1]; MAX T47D, 10% FCS, study P495B) was 80%. The “Test/Control (%) … [uM] 1,0E+01” value ([1]; MAX T47D, 10% FCS, study P495B) was 79%, the “Test/Control (%) … [uM] 1,0E+02” value ([1]; MAX T47D, 10% FCS, study P495B) was 57% and the “Test/Control (%) … [uM] 1,0E-01” value ([1]; MAX T47D, 10% FCS, study P495B) was 92%. The “Test/Control (%) … [uM] 1,0E-02” value ([1]; MAX T47D, 10% FCS, study P495B) was 93%, the “Test/Control (%) at Drug Concentration [uM] 1,0E-03” value ([1]; MAX T47D, 10% FCS, study P495B) was 94% and the “Test/Control (%) … [uM] 3,2E+00” value ([1]; MAX T47D, 10% FCS, study P495B) was 79%. The “Test/Control (%) … [uM] 3,2E+01” value ([1]; MAX T47D, 10% FCS, study P495B) was 84%, the “Percent cell growth in Oncotest screen with 10% FCS (72 hr incubation)” value ([2]; 10 μM phenoxybenzamine, RPMI 8226) was 98% and the IC50 ([2]; Homo sapiens, MMXF RPMI 8226 Myeloma, 1% FCS) was 44.4 µM. For the same molecule, the “Test/Control (%) … [uM] 1,0E+00” value [2, 5] was 102%, the “Test/Control (%) … [uM] 1,0E+01” value [2, 5] was 95% and the “Test/Control (%) … [uM] 1,0E+02” value [2, 5] was 5%. For the same molecule, the “Test/Control (%) … [uM] 3,2E+00” value [2, 5] was 101%, the “Test/Control (%) … [uM] 3,2E+01” value [2, 5] was 77% and the “Test/Control (%) … [uM] 1,0E+00” value [2, 6] was 89%. The “Test/Control (%) … [uM] 1,0E+01” value [2, 6] was 98%, the “Test/Control (%) … [uM] 1,0E+02” value [2, 6] was 10% and the “Test/Control (%) … [uM] 1,0E-01” value [2, 6] was 83%. For the same molecule, the “Test/Control (%) … [uM] 1,0E-02” value [2, 6] was 80%, the “Test/Control (%) … [uM] 3,2E+00” value [2, 6] was 87% and the “Test/Control (%) … [uM] 3,2E+01” value [2, 6] was 99%. The “Test/Control (%) … [uM] 3,2E-01” value [2, 6] was 84%, the “Test/Control (%) … [uM] 3,2E-02” value [2, 6] was 76% and the “Test/Control (%) … [uM] 3,2E-03” value [2, 6] was 86%. The “Test/Control (%) … [uM] 1,0E+00” value [2, 7] was 88%, the “Test/Control (%) … [uM] 1,0E+01” value [2, 7] was 94% and the “Test/Control (%) … [uM] 1,0E+02” value [2, 7] was 16%. The “Test/Control (%) … [uM] 1,0E-01” value [2, 7] was 100%, the “Test/Control (%) … [uM] 1,0E-02” value [2, 7] was 100% and the “Test/Control (%) at Drug Concentration [uM] 1,0E-03” value [2, 7] was 100%. For the same molecule, the “Test/Control (%) … [uM] 3,2E+00” value [2, 7] was 92%, the “Test/Control (%) … [uM] 3,2E+01” value [2, 7] was 95% and the IC50 ([3]; Homo sapiens, LXFS DMS 273 Small-cell lung, 1% FCS) was 99.8 µM. The “Test/Control (%) … [uM] 1,0E+00” value [3, 8] was 104%, the “Test/Control (%) … [uM] 1,0E+01” value [3, 8] was 91% and the “Test/Control (%) … [uM] 1,0E+02” value [3, 8] was 49%. The “Test/Control (%) … [uM] 3,2E+00” value [3, 8] was 101%, the “Test/Control (%) … [uM] 3,2E+01” value [3, 8] was 100% and the “Test/Control (%) … [uM] 1,0E+00” value [3, 9] was 76%. For the same molecule, the “Test/Control (%) … [uM] 1,0E+01” value [3, 9] was 82%, the “Test/Control (%) … [uM] 1,0E+02” value [3, 9] was 105% and the “Test/Control (%) … [uM] 1,0E-01” value [3, 9] was 81%. For the same molecule, the “Test/Control (%) … [uM] 1,0E-02” value [3, 9] was 75%, the “Test/Control (%) … [uM] 3,2E+00” value [3, 9] was 87% and the “Test/Control (%) … [uM] 3,2E+01” value [3, 9] was 100%. For the same molecule, the “Test/Control (%) … [uM] 3,2E-01” value [3, 9] was 80%, the “Test/Control (%) … [uM] 3,2E-02” value [3, 9] was 74% and the “Test/Control (%) … [uM] 3,2E-03” value [3, 9] was 83%. The “Percent cell growth in Oncotest screen with 10% FCS (72 hr incubation)” value ([4]; 10 μM phenoxybenzamine, PC-3) was 86%, the IC50 ([4]; Homo sapiens, PRXF PC-3 Prostate, 1% FCS) was 29.8 µM and the “Test/Control (%) … [uM] 1,0E+00” value ([4]; PRXF PC-3, 1% FCS, study P495C) was 102%.
